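How tested: cells in 96-well plates exposed to compound for 48 hours at five concentrations. The concentration for 50% growth inhibition is given as GI50. TGI: total growth inhibition.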
Experiments:
Assay in all cases: growth of human tumour cells (NCI), 48 h
[1] = tested on: ACHN renal
[2] = tested on: SK-OV-3 ovarian
[3] = tested on: HS 578T breast
[4] = tested on: COLO 205 colon
[5] = tested on: EKVX NSCLC
[6] = tested on: CAKI-1 renal
[7] = tested on: HCT-116 colon
[8] = tested on: OVCAR-4 ovarian
[9] = tested on: K-562 leukemia
[10] = tested on: DU-145 prostate

O=[N+]([O-])/C(C(Cl)=C(Cl)Cl)=C(\N1CCCCC1)n1nnc2ccccc21
TGI [1]: 42.3 µM
TGI [2]: 68.2 µM
TGI [3]: 81.8 µM
TGI [4]: 34.4 µM
TGI [5]: 26.4 µM
TGI [6]: > 55.9 µM
TGI [7]: 33.4 µM
TGI [8]: > 100 µM
TGI [9]: 22.5 µM
TGI [10]: 37.7 µM

O=C(NNS(=O)(=O)c1ccccc1)c1cccnc1
TGI [1]: > 100 µM
TGI [2]: > 100 µM
TGI [3]: > 100 µM
TGI [4]: > 100 µM
TGI [5]: > 100 µM
TGI [6]: > 100 µM
TGI [7]: > 100 µM
TGI [8]: > 100 µM
TGI [9]: > 100 µM
TGI [10]: > 100 µM

O=C(Nc1cccc2ccccc12)c1ccccc1
TGI [1]: > 100 µM
TGI [2]: > 100 µM
TGI [3]: > 100 µM
TGI [4]: > 100 µM
TGI [5]: > 100 µM
TGI [6]: > 100 µM
TGI [7]: > 100 µM
TGI [8]: > 100 µM
TGI [9]: > 100 µM
TGI [10]: > 100 µM

CC1(C)CCCCCC(C)(CCCO)C1=O (stereo not given)
TGI [1]: > 100 µM
TGI [2]: > 100 µM
TGI [3]: > 100 µM
TGI [4]: > 100 µM
TGI [5]: > 100 µM
TGI [6]: > 100 µM
TGI [7]: > 100 µM
TGI [8]: > 100 µM
TGI [9]: > 100 µM
TGI [10]: > 100 µM

Cc1ccc(O)c(C2=CC(c3cccc(Br)c3)SC(N)=N2)c1 (stereo not given)
TGI [1]: 52.2 µM
TGI [2]: 75.6 µM
TGI [3]: 45 µM
TGI [4]: 34.6 µM
TGI [5]: 59.9 µM
TGI [6]: > 100 µM
TGI [7]: 35.9 µM
TGI [8]: > 100 µM
TGI [9]: 83.2 µM
TGI [10]: > 100 µM

O=C(Nc1sccc1S(=O)(=O)c1ccccc1)c1ccccc1
TGI [1]: > 100 µM
TGI [2]: > 100 µM
TGI [3]: > 100 µM
TGI [4]: > 100 µM
TGI [5]: > 100 µM
TGI [6]: > 100 µM
TGI [7]: > 100 µM
TGI [8]: > 100 µM
TGI [9]: > 19.9 µM
TGI [10]: > 100 µM

ClCc1cccc(CSc2ncnc3c2ncn3Cc2cccc(CCl)c2)c1
GI50 [1]: 2 µM
TGI [1]: 4.39 µM
GI50 [2]: 2.3 µM
TGI [2]: 4.97 µM
GI50 [3]: 5.39 µM
TGI [3]: > 100 µM
GI50 [4]: 1.88 µM
TGI [4]: 3.43 µM
GI50 [5]: 10.1 µM
TGI [5]: 24.6 µM
GI50 [6]: 1.92 µM
TGI [6]: 4.34 µM
GI50 [7]: 1.76 µM
TGI [7]: 3.31 µM
GI50 [8]: 2.38 µM
TGI [8]: 10.6 µM
GI50 [9]: 2.71 µM
TGI [9]: 15 µM
GI50 [10]: 1.85 µM
TGI [10]: 3.3 µM

CC1CN=C(c2cccc(-c3nc(-c4cccc(C5=NCC(C)N5)c4)nc(N(C)C)n3)c2)N1 (stereo not given)
TGI [1]: 10.1 µM
TGI [2]: 4.61 µM
TGI [3]: 17.1 µM
TGI [4]: 2.5 µM
TGI [5]: 8.64 µM
TGI [6]: 32.2 µM
TGI [7]: 2.49 µM
TGI [8]: 2.72 µM
TGI [9]: 2.77 µM
TGI [10]: 7.14 µM

CC/C=C/C[C@H](O)[C@H]1C[C@H]2O[C@H](CC(=O)OC)C[C@H]2O1
TGI [1]: > 100 µM
TGI [2]: > 100 µM
TGI [3]: > 100 µM
TGI [4]: > 100 µM
TGI [5]: > 100 µM
TGI [6]: > 100 µM
TGI [7]: > 100 µM
TGI [8]: > 100 µM
TGI [9]: > 100 µM
TGI [10]: > 100 µM

CO[C@@H]1C[C@H](OC(N)=O)[C@@H]2C=C[C@@H]3/C=C(C)/C=C/[C@@H](C)[C@H](/C(C)=C/[C@@H](C)NC(C)=O)OC(=O)/C=C/C=C(C)\C=C\[C@]3(C)[C@@H]2C1
TGI [1]: 0.613 µM
TGI [2]: 0.192 µM
TGI [3]: 0.0455 µM
TGI [4]: 0.514 µM
TGI [5]: 0.843 µM
TGI [6]: 0.167 µM
TGI [7]: 0.107 µM
TGI [8]: 11.4 µM
TGI [9]: 8.38 µM
TGI [10]: 2.43 µM

C=CCc1cc(C(Cc2ccccc2)NC(C)C)cc(OCc2ccccc2)c1OCc1ccccc1 (stereo not given)
TGI [1]: 30.5 µM
TGI [2]: 27 µM
TGI [3]: 37.1 µM
TGI [4]: 31.3 µM
TGI [5]: 30 µM
TGI [6]: 29.5 µM
TGI [7]: 31.2 µM
TGI [8]: 33.1 µM
TGI [9]: 40.9 µM
TGI [10]: 29.7 µM

O=S(=O)(/N=C(\NO)Nc1ccc(Cl)cc1)c1ccccc1
TGI [1]: 36.3 µM
TGI [2]: > 100 µM
TGI [3]: 34.6 µM
TGI [4]: 51.5 µM
TGI [5]: 26.1 µM
TGI [6]: 23 µM
TGI [7]: 24.3 µM
TGI [8]: > 61.2 µM
TGI [9]: > 100 µM
TGI [10]: > 60.3 µM

COc1ccc2c3c1OC1C34CCN(C)C(C2)C4=CC(I)C1(OC)OC (stereo not given)
TGI [1]: 23.4 µM
TGI [2]: 28.9 µM
TGI [3]: 79.7 µM
TGI [4]: 28.7 µM
TGI [5]: 33.8 µM
TGI [6]: 25.6 µM
TGI [7]: 14.6 µM
TGI [8]: 30 µM
TGI [9]: 23.4 µM
TGI [10]: 22.6 µM

CCN(CC)CCCNc1[nH]ncc2c(C)c3nc4ccc(OC)cc4c3cc12
TGI [1]: 5.95 µM
TGI [2]: 5.33 µM
TGI [3]: 4.25 µM
TGI [4]: 2.89 µM
TGI [5]: 10.9 µM
TGI [6]: 29.3 µM
TGI [7]: 1.41 µM
TGI [8]: 2.75 µM
TGI [9]: 1.64 µM
TGI [10]: 8.24 µM

C=CCCCCOC1C=CC(O)C(CO)O1 (stereo not given)
TGI [1]: > 100 µM
TGI [2]: > 100 µM
TGI [3]: > 100 µM
TGI [4]: > 100 µM
TGI [5]: > 100 µM
TGI [6]: > 100 µM
TGI [7]: > 100 µM
TGI [8]: > 100 µM
TGI [9]: > 100 µM
TGI [10]: > 100 µM

COP(=O)(OC)/C(=C/c1cn(C(c2ccccc2)(c2ccccc2)c2ccccc2)cn1)NC=O
TGI [1]: 24.6 µM
TGI [2]: 90.8 µM
TGI [3]: 43.2 µM
TGI [4]: 32.9 µM
TGI [5]: 56.9 µM
TGI [6]: 62.3 µM
TGI [7]: 32.8 µM
TGI [8]: 51.9 µM
TGI [9]: > 100 µM
TGI [10]: > 100 µM

COc1cc(NC=C2C(=O)OC(C)(C)OC2=O)c(OC)c(C)c1OC
TGI [1]: > 100 µM
TGI [2]: > 100 µM
TGI [3]: > 100 µM
TGI [4]: > 100 µM
TGI [5]: > 100 µM
TGI [6]: > 100 µM
TGI [7]: > 100 µM
TGI [8]: > 100 µM
TGI [9]: > 100 µM
TGI [10]: > 100 µM

Source: PubChem BioAssay (NCI)
